According to paper PMC4717123, “The cytochrome P450 CYP6P4 is responsible for the high pyrethroid resistance in knockdown resistance-free Anopheles arabiensis” (Insect Biochemistry and Molecular Biology, 2016):
Like-named read-outs stand apart in the source and are kept apart here.

What was measured:
[1] = target: T1, CYP6P4 (Anopheles arabiensis, UniProt A0A0M4KNY0); test: Inhibition assay of CYP6P4 metabolism of diethoxyfluorescein by insecticides; format: biochemical; conditions: 0.11 μM DEF substrate, 2 pmol CYP6P4, inhibitor 25-0.011 μM, 30 °C
T1 sequence (A0A0M4KNY0 1-506): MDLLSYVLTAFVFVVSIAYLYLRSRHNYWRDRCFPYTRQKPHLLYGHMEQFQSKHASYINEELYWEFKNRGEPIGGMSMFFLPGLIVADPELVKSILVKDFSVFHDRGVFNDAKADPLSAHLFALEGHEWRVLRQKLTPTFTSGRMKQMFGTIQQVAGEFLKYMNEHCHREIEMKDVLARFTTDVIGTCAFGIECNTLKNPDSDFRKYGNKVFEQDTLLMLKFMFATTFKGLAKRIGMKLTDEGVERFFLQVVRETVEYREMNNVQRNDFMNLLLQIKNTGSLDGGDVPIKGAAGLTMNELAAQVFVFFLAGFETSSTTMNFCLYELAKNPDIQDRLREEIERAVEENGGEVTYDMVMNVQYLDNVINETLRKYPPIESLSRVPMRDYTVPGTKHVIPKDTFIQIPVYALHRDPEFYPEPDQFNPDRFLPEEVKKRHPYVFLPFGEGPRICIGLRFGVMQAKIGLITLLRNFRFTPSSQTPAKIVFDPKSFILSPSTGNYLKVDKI
T1 sequence (Q86QH5 1-679 partner): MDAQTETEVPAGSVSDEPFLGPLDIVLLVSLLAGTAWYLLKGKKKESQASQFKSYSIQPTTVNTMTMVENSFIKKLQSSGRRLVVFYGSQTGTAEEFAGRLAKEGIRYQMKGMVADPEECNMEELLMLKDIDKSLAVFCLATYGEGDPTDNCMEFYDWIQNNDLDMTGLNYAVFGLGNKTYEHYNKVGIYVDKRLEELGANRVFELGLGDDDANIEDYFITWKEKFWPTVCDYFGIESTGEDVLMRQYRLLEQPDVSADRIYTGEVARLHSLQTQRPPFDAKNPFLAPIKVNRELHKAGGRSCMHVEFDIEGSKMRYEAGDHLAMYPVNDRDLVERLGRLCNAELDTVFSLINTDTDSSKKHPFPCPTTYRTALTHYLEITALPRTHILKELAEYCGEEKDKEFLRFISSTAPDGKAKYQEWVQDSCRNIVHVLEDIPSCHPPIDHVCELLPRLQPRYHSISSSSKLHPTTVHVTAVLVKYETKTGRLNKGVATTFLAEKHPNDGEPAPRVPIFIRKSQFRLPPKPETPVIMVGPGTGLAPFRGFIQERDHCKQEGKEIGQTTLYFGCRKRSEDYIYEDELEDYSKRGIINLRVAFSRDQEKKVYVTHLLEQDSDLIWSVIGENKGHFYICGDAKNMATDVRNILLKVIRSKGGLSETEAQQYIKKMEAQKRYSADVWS
Procedure: To assess differences in the degree of binding of the recombinant CYP6P4 to insecticides from different classes, inhibition assay was conducted with DEF and nine insecticides (inhibitors). […] 25 μl of pre-warmed regeneration buffer (7.8 mg glucose-6-phosphate, 0.25 mM MgCl2, 1.7 mg NADP, 6 U/ml glucose-6-phosphate dehydrogenase and 2% w/v NaHCO3) was incorporated into the wells. Fluorescence was monitored for 21 cycles at interval of 1 min with shaking at every step, at 30 °C. Results were analysed with GraphPad Prism software and inhibition at each inhibitor concentration and incubation time calculated as residual control activity towards DEF.

[2] = target: T1, CYP6P4; test: In vitro metabolism assays with insecticides (percentage depletion, HPLC); format: in vitro ADME; conditions: for metabolised at 1 h, 20 µM: Anopheles arabiensis, recombinant cyp6p4
Procedure: 0.2 M Tris–HCl and NADPH-regeneration components were added to the bottom of 1.5 ml tube chilled on ice. Membranes expressing recombinant CYP6P4 and AgCPR (and reconstituted with cytochrome b5) were added to the side of the tube and pre-incubated for 5 min at 30 °C, with shaking at 1200 rpm. […] Reactions were quenched with 0.1 ml ice-cold methanol and incubated for 5 more minutes to precipitate protein. Tubes were then centrifuged at 16,000 rpm and 4 °C for 15 min, and 150 μl of supernatant transferred into HPLC vials for analysis. All reactions were carried out in triplicate with experimental samples (+NADPH) and negative controls (-NADPH). […] For the other insecticides, mobile phases were 65:35 (bendiocarb) and 60:40 v/v (propoxur and malathion) acetonitrile to water, respectively with column temperature of 40 °C for bendiocarb and propoxur. Bendiocarb and propoxur were detected at 205 nm and 270 nm respectively, whilst malathion was detected at 230 nm. Enzyme activity was calculated as percentage depletion (the difference in the amount of insecticide(s) remaining in the +NADPH tubes compared with the –NADPH) and a t-test used for statistical analysis.

[3] = test system: An. arabiensis populations from Ndjamena; design: method as in Witzig et al., 2013; conditions: Chad, 2009, ref Witzig et al., 2013; cited from earlier work
[4] = target: T1, CYP6P4; test: Fluorogenic probes assay (O-dealkylation, DEF kinetics); format: biochemical; conditions: 0-2 μM diethoxyfluorescein, 2 pmol enzyme, 10 min
Procedure: To find out whether there are differences in the degree of binding of recombinant CYP6P4 to different insecticides, membrane was also tested for O-dealkylation towards seven (7) fluorogenic probes: resorufin-based 7-ethoxyresurofin (7-ER), resurofin methyl ether (RME), resorufin-benzylether (RBE) and resorufin-pentylether (RPE); coumarin-based probes: 7-ethoxy-4-trifluoromethylcoumarin (7-EFC) and 7-methoxy-4-trifluoromethylcoumarin (MFC); and diethoxyfluorescein (DEF). […] Membranes were activated for 5 min at 37 °C in fluorescence spectrophotometer FLOUstar Omega (BMG LABTECH, Ortenberg, Germany) before 25 μl NADPH regeneration buffer (1 mM glucose-6-phosphate (G6P), 0.25 mM MgCl2, 0.1 mM NADP and 1 U/ml glucose-6-phosphate dehydrogenase (G6PDH) prepared in KPi (pH 7.4) was added. All reactions were conducted in three replicates with negative control (–NADPH) devoid of the regeneration buffer. Rate of fluorescent product formation for 7-ER, RBE and RME (ʎexc = 544 nm, ʎemi = 590 nm), 7-EFC and MFC (ʎexc = 410 nm, ʎemi = 535 nm) and DEF (ʎexc = 485 nm, ʎemi = 530 nm) was determined by linear regression of measurement between 2 and 10 min after start of the reaction.
For kinetics, 0–2 μM diethoxyfluorescein was assayed with 2 pmol of recombinant enzyme in a total volume of 250 μl. The protocol was as outlined above, with varying substrate concentration. […]

[5] = substrate: CC1(C)C(C=C(Cl)Cl)C1C(=O)OCc1cccc(Oc2ccccc2)c1; test: purified protein, by the assay type; format: biochemical, Anopheles arabiensis; conditions: other: permethrin 3-30 μM, 30 min, 22.5 pmol recombinant protein
Procedure: Reactions were performed in triplicates both for + NADPH (experimental tubes) and –NADPH (negative control tubes). Km and Vmax were established from the plot of substrate concentrations against the initial velocities and fitting of the data to the Michaelis–Menten module using the least squares non-linear regression, as implemented in the GraphPad Prism 6.03 Software (GraphPad Inc., La Jolla, CA, USA).

[6] = 20 μM insecticide, 1 h incubation, 30 °C, +NADPH vs -NADPH

## CC1(C)C(C=C(Cl)Cl)C1C(=O)OCc1cccc(Oc2ccccc2)c1 (centres unmarked) [permethrin]
[1]; read-out: IC50
  IC50: 970 nM
[2]; [6]
  metabolised at 1 h, 20 µM: 70.5%

## CCOC(=O)CC(SP(=S)(OC)OC)C(=O)OCC (centres unmarked) [malathion]
[1]
  IC50: high IC50 values
[3]
  resistance/susceptibility status: susceptible
[2]; [6]
  Percentage depletion: No activities

## ClC1=C(Cl)[C@]2(Cl)[C@@H]3[C@@H]4C[C@@H]([C@H]5O[C@@H]45)[C@@H]3[C@@]1(Cl)C2(Cl)Cl [dieldrin]
[3]
  resistance/susceptibility status: susceptible

## CCOc1ccc(C(C)(C)COCc2cccc(Oc3ccccc3)c2)cc1 [etofenprox]
[2]; [6]
  metabolised at 1 h, 20 µM: 24.9%

## CNC(=O)Oc1ccccc1OC(C)C [propoxur]
[2]; [6]
  Percentage depletion: No activities

## CNC(=O)Oc1cccc2c1OC(C)(C)O2 [bendiocarb]
[1]
  IC50: high IC50 values
[3]
  resistance/susceptibility status: susceptible
[2]; [6]
  Percentage depletion: No activities

## Cc1c(COC(=O)[C@@H]2[C@H](/C=C(\Cl)C(F)(F)F)C2(C)C)cccc1-c1ccccc1 (racemic) [bifenthrin]
[2]; [6]
  Percentage depletion: 49.2%

## CC1(C)[C@H](C(=O)O[C@H](C#N)c2cccc(Oc3ccccc3)c2)[C@@H]1C=C(Br)Br [deltamethrin]
[1]; read-out: IC50
  IC50: 2520 nM
[3]
  mortality rate: 90%
[2]; [6]
  metabolised at 1 h, 20 µM: < 2%

## CC1(C)[C@H](C(=O)O[C@H](C#N)c2cccc(Oc3ccccc3)c2)[C@@H]1/C=C(\Cl)C(F)(F)F (racemic) [λ-cyhalothrin]
[2]; [6]
  metabolised at 1 h, 20 µM: 57.8%

## Clc1ccc(C(c2ccc(Cl)cc2)C(Cl)(Cl)Cl)cc1 [DDT]
[3]
  resistance/susceptibility status: resistant
[2]; 20 μM DDT, 1 h, following addition of sodium cholate, p = 0.08, neither dicofol nor DDE detected
  Percentage depletion: up to 20%

## CCOc1ccc2c(c1)Oc1cc(OCC)ccc1C21OC(=O)c2ccccc21 [DEF, diethoxyfluorescein]
[4]
  Kcat (maximal catalytic activity): 0.9775 s⁻¹
  Km: 0.11 µM

B1: recombinant CYP6P4 (Anopheles arabiensis) (protein)
chain: MDLLSYVLTAFVFVVSIAYLYLRSRHNYWRDRCFPYTRQKPHLLYGHMEQFQSKHASYINEELYWEFKNRGEPIGGMSMFFLPGLIVADPELVKSILVKDFSVFHDRGVFNDAKADPLSAHLFALEGHEWRVLRQKLTPTFTSGRMKQMFGTIQQVAGEFLKYMNEHCHREIEMKDVLARFTTDVIGTCAFGIECNTLKNPDSDFRKYGNKVFEQDTLLMLKFMFATTFKGLAKRIGMKLTDEGVERFFLQVVRETVEYREMNNVQRNDFMNLLLQIKNTGSLDGGDVPIKGAAGLTMNELAAQVFVFFLAGFETSSTTMNFCLYELAKNPDIQDRLREEIERAVEENGGEVTYDMVMNVQYLDNVINETLRKYPPIESLSRVPMRDYTVPGTKHVIPKDTFIQIPVYALHRDPEFYPEPDQFNPDRFLPEEVKKRHPYVFLPFGEGPRICIGLRFGVMQAKIGLITLLRNFRFTPSSQTPAKIVFDPKSFILSPSTGNYLKVDKI
[5]
  Km: 8.07 µM
  kcat: 0.054 s⁻¹
  kcat/Km: 0.4008 min^−1μM^−1
